# Measurements reported in US8889661B2 (Teva Pharmaceutical Industries, Ltd., priority 2010, dated 2014).
# Tests used:
# (NZBxNZW)F1 mice [1] = settings: for proteinuria (PU): Week 12 observation, vs vehicle (water), laquinimod 25 mg/kg p.o. daily, CTX once weekly i.p., MW U test; for immune complex deposition (ICD) in kidney: end of experiment (12 weeks), vs vehicle, scoring and image analysis
# Source text: Systemic Lupus Erythematosus (SLE) is a disorder of generalized autoimmunity characterized by defective T cell-mediated responses and the formation of a variety of antibodies reactive to self or altered self-antigens. SLE is mainly characterized by the presence of anti-DNA antibodies. Some of these auto-antibodies combine with the corresponding auto-antigens, forming immune complexes, either in the circulating blood or directly in tissues, resulting in severe damage. Glomerulonephritis induced by immune complexes is in fact the major cause of death in patients with SLE. (NZBxNZW)F1 are lupus-prone mice that develop an SLE-like disease spontaneously including anti-dsDNA antibodies (Abs), proteinuria and Immune Complex Deposits (ICD). The (NZBxNZW)F1 (NZB/W) murine model is the hallmark of spontaneous SLE.
# MTX is an antimetabolite drug used in treatment of cancer and autoimmune diseases. It acts by inhibiting the metabolism of folic acid via the inhibition of dihydrofolate reductase and blocks DNA synthesis in rapidly proliferate cells. These actions include immunosuppression.
# CTX was applied once weekly in a dose of […] i.p. MTX was applied 3 times a week p.o. at 35 μg/mouse.
# Also, body weight changes were recorded weekly and at the end of experiment both kidneys were preserved, one for possible conventional histology and one for immune complex detection (ICD) in glomeruli. Evaluation of ICD was performed by scoring and by image analysis.
# 80 animals were involved in the study.
# [2] = system: MRL/lpr lupus mouse model; assay: Non-GLP in vivo evaluation of laquinimod in the MRL/lpr lupus mouse model; settings: for kidney glomerulonephritis (histopathology) / salivary gland inflammation (histopathological scoring): laquinimod 5 mg/kg, vs vehicle; for kidney glomerulonephritis (histopathology): MMF 100 mg/kg p.o.; for salivary gland inflammation (histopathological scoring): MMF 100 mg/kg
# Procedure: This study evaluates the efficacy of laquinimod in the MRL/lpr lupus mouse model.
# Animals were monitored until their urine proteinuria reached >200 mg/dL at which time they were enrolled in the study.
# Proteinuria, ankle and paw diameters, dsDNA autoantibody levels and survival were monitored during in life portion of the study. At termination, blood samples were harvested for determination of dsDNA autoantibody levels, spleens were harvested and weighed then processed to isolate splenocytes which were counted. Kidney, lung, skin, lymph node, salivary gland and joints were harvested, processed for histological examination and scored by a histopathologist blind to the treatments.
# (NZBxNZW)F1 mice [3] = assay: Confirmation of efficacy of laquinimod in the (NZBxNZW)F1 model for SLE, 13 weeks; assay type: in vivo, mouse
# Procedure: CTX was administered intraperitonealy once weekly, (200 μl/mouse). Blood samples were collected on Weeks 1, 5, and 11. Serum samples were prepared for detection of anti-dsDNA antibodies. After 13 weeks of treatment, mice were sacrificed and immune complex deposits in their kidneys were evaluated.
# (NZBxNZW)F1 mice [4] = assay: Survival dose response study of laquinimod in the (NZBxNZW)F1 model for SLE, 37 weeks; assay type: in vivo, mouse
# Procedure: The positive control used was Cytoxan.
# CTX was administered intraperitonealy once weekly, (200 μl/mouse). Blood samples were collected on Weeks 1, 5, 15 and 37. Serum samples were prepared for detection of anti-dsDNA antibodies. After 37 weeks (257 days) of treatment, mice were sacrificed.
# [5] = in vivo; cited from earlier work
# [6] = system: active lupus nephritis patients; assay: Phase IIa clinical trial of laquinimod in combination with standard of care (MMF and steroids) in active lupus nephritis; assay type: in vivo, human
# Source text: Approximately 45 Systemic Lupus Erythematosus patients with active lupus nephritis (LN) are enrolled. [ISN/RPS 2003 classification of lupus nephritis—classes III (A or A/C), IV-S or IV-G (A or A/C), or class V—pure or in combination with class III or IV].
# The overall study duration is up to 32 weeks, with the screening phase being up to 4 weeks, the treatment period being 24 weeks and the follow-up period being 4 weeks for all subjects who complete the 24-week treatment period or subjects who prematurely discontinue treatment prior to Week 24 visit.
# Placebo arm—2 capsules of placebo. Mycophenolate Mofetil (MMF)
# MMF tablets 500 mg. All treatment arms receive MMF at baseline and throughout the study to a target dose of 2 g/day.
# Subjects are assessed for study eligibility up to 4 weeks prior to baseline. Eligible subjects are initially randomized in a 1:1 ratio into one of the following two treatment arms: • 1.
# Upon approval, randomization into one of the following three treatment arms occurs in a ratio that allows for reaching an overall target enrollment of approximately 15 subjects per treatment arm. Drop-outs are not replaced. • 1.
# In addition, all receive IV methylprednisolone 500 mg/day for 3 days followed by 40 mg/day oral prednisolone/prednisone, which is tapered to not more than 10 mg/day by the end of Week 20, on a fixed steroid tapering regimen).
# Any of the following results in early termination from the study: • 1. Increase in serum creatinine without improvement in proteinuria from 8 weeks onward (confirmed by repeated measurement within 2 weeks), defined as: • a. Serum creatinine >1.3 mg/dL that is at least 25% higher than the baseline value; and • b. […] Doubling of protein to creatinine ratio compared to baseline and protein to creatinine ratio >3 from Week 8 onwards (confirmed by repeated measurement within 2 weeks. At least one of the measurements should be a 24 hours urine collection). Outcome Measures Response Definitions • 1. Complete response (CR)—protein to creatinine ratio <0.5 and [decreased serum creatinine by at least 25% compared to baseline or serum creatinine <1.3 mg/dL]. • 2. […] BILAG renal response is defined as change from renal A or B at baseline to C or D. • 4. BILAG Substantial Responder (SR) is defined as all systems at last observed value (LOV) are C or D/E providing at least one system is A or B at baseline. Clinical Effect Outcome Measure Renal—System 1. Proportion of Subjects with Complete or Partial Response at Week 24 and the Lack of Treatment Failure
# [7] = daily oral 0.5 mg or 1 mg laquinimod with standard of care (MMF and steroids)
# [8] = daily oral 0.5 mg or 1 mg laquinimod with standard of care, during the study period
smiles,measurement,setting,value
"O=P1(N(CCCl)CCCl)NCCCO1 (stereo not drawn) [CTX, cyclophosphamide]",proteinuria (PU),(NZBxNZW)F1 mice [1],significantly diminished
same,immune complex deposition (ICD) in kidney,(NZBxNZW)F1 mice [1],significantly inhibited
"COc1c(C)c2c(c(O)c1C/C=C(\C)CCC(=O)OCCN1CCOCC1)C(=O)OC2 [MMF, 2-morpholinoethyl (E)-6-(1,3-dihydro-4-hydroxy-6-methoxy-7-methyl-3-oxo-5-isogenzofuranyl)-4-methyl-4-hexenoate, reference compound]",lung BALT hyperplasia (histopathology),[2]; MMF 100 mg/kg p.o. vs vehicle,significant difference
same,kidney glomerulonephritis (histopathology),[2],significant reductions
same,salivary gland inflammation (histopathological scoring),[2],significant reduction
"CN(Cc1cnc2nc(N)nc(N)c2n1)c1ccc(C(=O)N[C@@H](CCC(=O)O)C(=O)O)cc1 [MTX, methotrexate]",animals died during the treatment period,"(NZBxNZW)F1 mice [1]; 12 weeks treatment, 80 animals in the study",2
same,symptoms (proteinuria and immune complex deposition in kidney),"(NZBxNZW)F1 mice [1]; MTX 35 μg/mouse p.o. 3 times a week, 12 weeks",failed to inhibit
CCN(C(=O)c1c(O)c2c(Cl)cccc2n(C)c1=O)c1ccccc1 [laquinimod],anti-dsDNA levels,(NZBxNZW)F1 mice [3]; laquinimod 5 mg/kg,behaved similarly to the positive control CTX
same,immune complex deposits,(NZBxNZW)F1 mice [3]; laquinimod 5 mg/kg,behaved similarly to the positive control CTX
same,disease progression as measured by proteinuria,"(NZBxNZW)F1 mice [3]; laquinimod 0.2 and 5 mg/kg p.o. 5 days a week, 13 weeks",abrogated disease progression
same,ICD (immune complex deposits),(NZBxNZW)F1 mice [3]; laquinimod low dose 0.2 mg/kg,did not inhibit
same,anti-dsDNA Ab titers,(NZBxNZW)F1 mice [3]; laquinimod low dose 0.2 mg/kg,did not inhibit
same,proteinuria,(NZBxNZW)F1 mice [3]; laquinimod low dose 0.2 mg/kg,prevented increased proteinuria
same,progression of proteinuria,"(NZBxNZW)F1 mice [4]; all doses of laquinimod (0.2, 1, 5, 25 mg/kg p.o. 5 days a week), vs vehicle",abrogated the progression of proteinuria
same,survival,"(NZBxNZW)F1 mice [4]; all doses of laquinimod, 37 weeks",significant prolongation of survival
same,"proteinuria, compared with positive control CTX","(NZBxNZW)F1 mice [4]; laquinimod doses of 1, 5 and 25 mg/kg",as effective as the positive control cyclophosphamide (CTX)
same,proteinuria,"(NZBxNZW)F1 mice [4]; laquinimod lowest dose (printed 0.2 mg/ml), compared to the higher doses",abrogated proteinuria but not to the same extent
same,anti-dsDNA levels,"(NZBxNZW)F1 mice [4]; serum, Weeks 1, 5, 15 and 37",dose dependent reduction in antibody levels over time
same,bone resorption (joint histopathology),[2]; both doses of laquinimod (1 and 5 mg/kg) vs vehicle,Significant reductions
same,"salivary gland inflammation score, higher vs lower dose",[2]; laquinimod 5 mg/kg compared with 1 mg/kg,significantly lower score
same,cartilage damage (joint histopathology),[2]; laquinimod 5 mg/kg vs vehicle,significant reduction
same,joint inflammation (histopathology),[2]; laquinimod 5 mg/kg vs vehicle,significantly reduced
same,splenocytes as percent of total spleen cells,[2]; laquinimod 5 mg/kg vs vehicle,significant reduction
same,kidney glomerulonephritis (histopathology),[2],significant reductions
same,salivary gland inflammation (histopathological scoring),[2],significant reduction
same,"measures during the in life phase (proteinuria, ankle and paw diameters, dsDNA autoantibody levels, survival)","[2]; laquinimod 1 or 5 mg/kg p.o., trends not significant except sporadic time points",trend toward dose dependent efficacy
same,oral bioavailability,[5],high
same,"effect of the combination of laquinimod, MMF and steroids on active lupus nephritis",[6]; 0.5 mg and 1.0 mg laquinimod daily with MMF and steroids,significantly more than the additive effect of each agent alone
same,complete response (CR),[6]; [7],results in a complete response
same,partial response (PR),[6]; [7],results in a partial response
same,proteinuria,[6]; [7],reduces proteinuria
same,tolerability and toxicity,[6]; [7],well tolerated and has no toxicity
same,treatment of active lupus nephritis,[6]; [7],effective to treat active lupus nephritis
same,urinary sediments,[6]; [7],eliminates urinary sediments
same,decrease of glomerular filtration rate (GFR) as compared to baseline,[6]; [8],no more than 10%
same,glomerular filtration rate (GFR) reached,[6]; [8],greater than 70 ml/min/1.73 m^2
same,increase of glomerular filtration rate (GFR) as compared to baseline,[6]; [8],at least 25%
same,proteinuria (PU),(NZBxNZW)F1 mice [1],significantly diminished
same,immune complex deposition (ICD) in kidney,(NZBxNZW)F1 mice [1],significantly inhibited
